In one assay the target is T1, 5-HT7 (Homo sapiens, UniProt P34969).
T1 construct: Euroscreen FAST (contract assay)
Description: Radioligand binding competition dose-response (Euroscreen), 5-HT7. How it is done:
This study included binding assays (87 GPCR targets), measured as % of binding inhibition of a reference radioligand, as well as uptake and enzyme assays (19 targets), the latter measured as % inhibition of control enzyme activity. […] It was performed by radioligand binding competition by Euroscreen (Euroscreen FAST, Belgium). The following nanomolar concentrations were tested in duplicate: 0.001, 0.01, 0.1, 1, 10, 100, 1000, 10,000. Dose–response curves were fitted with the least squares method. IC50 results are shown as pIC50, corresponding to the negative log10 of IC50 in molar.

In assay [1] the test system is microglia and motor neurons in the ventral spinal cord. Kind of assay: Iba1 and ChAT immunostaining of lumbar spinal cord. The format is in vivo. As to conditions: Sod1^G86R mice. The procedure: We then sought to characterize whether BW modulated microglial physiology and used RT-qPCR to measure microglia related genes in the cervical and thoracic spinal cord of animals treated with either vehicle or 3 mg/kg/d of BW. […] We next wanted to see if these changes in gene expression were accompanied by modification of microglial activation in spinal cord of treated mice. Iba1 + cells were classified in 4 different activation states (resting, activated, phagocytic or dystrophic).
Lumbar spinal cord was dissected and cryopreserved before OCT inclusion. Samples were cut with a cryostat (Leica CM30505) at 20 µm of thickness. Iba1 (1:100, Sigma cat#SAB2702364, RRID: AB_2820253) and ChaT (1:100, Millipore cat#AB144P) immunostainings were performed using DAB peroxidase technique to assess microglial integrity and motor neuron degeneration. Images were acquired using a Leica DM750 microscope at × 10 magnification. Cells were counted in the ventral horn in a standardized zone with n = 4–10 images per animal, and subsequently classified using FIJI software (RRID: SCR_002285)[23],[24].

For another assay, the target named is 5-HT2B (Homo sapiens, UniProt P41595). As to conditions: dose-response study, maximal concentration 10 µM, [3H]mesulergine.
Chain of 5-HT2B (P41595 whole entry, species assumed): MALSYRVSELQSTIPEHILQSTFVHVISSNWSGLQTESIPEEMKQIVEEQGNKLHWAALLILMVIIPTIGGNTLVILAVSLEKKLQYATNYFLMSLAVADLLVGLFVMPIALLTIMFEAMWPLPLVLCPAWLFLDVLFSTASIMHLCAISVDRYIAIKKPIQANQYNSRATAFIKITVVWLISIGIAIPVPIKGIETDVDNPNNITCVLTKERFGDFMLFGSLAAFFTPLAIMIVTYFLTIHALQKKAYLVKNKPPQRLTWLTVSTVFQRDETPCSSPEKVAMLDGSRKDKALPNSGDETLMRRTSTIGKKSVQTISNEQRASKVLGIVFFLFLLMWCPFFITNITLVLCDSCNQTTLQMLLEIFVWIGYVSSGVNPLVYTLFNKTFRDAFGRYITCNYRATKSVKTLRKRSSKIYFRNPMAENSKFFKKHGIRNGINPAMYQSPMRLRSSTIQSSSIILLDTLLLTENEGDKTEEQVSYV

Broadly, the IC50 is the concentration that inhibits the measured activity by half. Read a high IC50 as weaker potency. A word on the inhibition: it is how much of the control response was suppressed.

T1 sequence (P34969 whole entry, species assumed): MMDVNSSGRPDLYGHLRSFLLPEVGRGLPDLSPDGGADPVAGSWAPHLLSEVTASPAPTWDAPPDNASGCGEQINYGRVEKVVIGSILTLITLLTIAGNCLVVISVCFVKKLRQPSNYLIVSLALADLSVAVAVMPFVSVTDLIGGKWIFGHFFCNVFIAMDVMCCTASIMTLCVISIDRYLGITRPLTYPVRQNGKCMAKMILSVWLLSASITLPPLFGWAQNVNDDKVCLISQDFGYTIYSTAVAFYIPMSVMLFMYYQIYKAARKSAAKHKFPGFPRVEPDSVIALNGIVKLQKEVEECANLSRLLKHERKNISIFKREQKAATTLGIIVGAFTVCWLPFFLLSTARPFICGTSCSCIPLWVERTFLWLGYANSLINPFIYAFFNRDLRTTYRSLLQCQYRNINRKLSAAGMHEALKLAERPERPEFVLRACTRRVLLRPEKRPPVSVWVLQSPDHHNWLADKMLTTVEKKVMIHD

Regarding `CC(N)Cc1c[nH]c2ccc(OCc3cccs3)cc12` (centres unmarked) [BW, 1-[5-(thiophen-2-ylmethoxy)-1H-indol-3-yl]propan-2-amine], at 5-HT7, the IC50 is 1020 nM. For the same compound, the inhibition at 10 µM on 5-HT7 (dose-response study, maximal concentration 10 µM, [3H]LSD) is 91.8%. Also, the “microglial morphology (proportion of resting, activated, phagocytic, dystrophic Iba1+ cells)” value in assay [1] (3 mg/kg/d vs vehicle) is given as “No statistically significant difference”. For the same compound, in assay [1] (3 mg/kg/d), the “loss of motor neurons (ChAT positive cells in the ventral spinal cord)” value is given as “did not modify”. The “%Binding inhibition at 10 µM” value on 5-HT2B is recorded as 103.54%.
